We go through 16 molecules from US6344457B1, “Amino acid derivatives inhibiting extracellular matrix metalloproteinase and TNF alpha release” (Chiesi Farmaceutici S.p.A., priority 1997, dated 2002).

Where two headings read alike, the source gives them in different places. Bounds are passed on as bounds.

Data set [1] concerns the target T1, collagenase of the human monocytic stock U937 (Homo sapiens, UniProt P03956).
T1 construct: the collagenase of the human monocytic stock U937; endogenous in cells; host or cells: U937 human monocytic cell line
T1 sequence (P03956 100-469): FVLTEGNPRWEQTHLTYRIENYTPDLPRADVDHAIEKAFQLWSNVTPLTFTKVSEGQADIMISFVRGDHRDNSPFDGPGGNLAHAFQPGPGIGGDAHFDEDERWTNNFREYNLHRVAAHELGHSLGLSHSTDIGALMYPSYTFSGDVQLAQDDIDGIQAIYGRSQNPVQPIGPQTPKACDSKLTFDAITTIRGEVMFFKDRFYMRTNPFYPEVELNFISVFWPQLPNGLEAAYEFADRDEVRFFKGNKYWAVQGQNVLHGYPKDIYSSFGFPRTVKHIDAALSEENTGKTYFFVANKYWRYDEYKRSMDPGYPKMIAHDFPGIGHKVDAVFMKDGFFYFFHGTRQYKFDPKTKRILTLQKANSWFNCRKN
In words: Activity on collagenase. In kind it is biochemical. Particulars: radiomarked collagen, 27° C., 16 hours; read-out: C150 (nM) collagenase. Here is the method:
The collagenase was incubated at 27° C. for 16 hours with radiomarked collagen, and its activity was determined by the release of soluble peptides produced by the enzymatic breakdown of the collagen. The inhibiting concentration C150 for each compound was determined by measurement of the activity of the enzyme in the presence of the inhibitor at a concentration ranging between 10^−7 and 10^−12 M (the inhibitor is dissolved at a concentration of 10^−2 M in DMSO, then diluted successively by tenths in the buffer: Tris, HCl 150 mM, pH 7.5; NaCl 0.15 M; CaCl2 10 mM).

In data set [2] the target is 92 kDa gelatinase of human origin (Homo sapiens, UniProt P14780). In words: Activity on gelatinase, radiomarked gelatin. Particulars: for IC50: test performed with radiomarked gelatin, read-out: C150 (nM) gelatinase 92 kDa*. The class given is biochemical. Here is the method: The anti-gelatinase activity of the compounds according to the invention also was determined on 92 kDa or 72 kDa gelatinase of human origin, in accordance with the operating mode described by Harris, E. D., Krane, S. M.; (Biochem. Biophys. Acta, 258, 566-576, 1972).
Chain of 92 kDa gelatinase of human origin (P14780 94-707): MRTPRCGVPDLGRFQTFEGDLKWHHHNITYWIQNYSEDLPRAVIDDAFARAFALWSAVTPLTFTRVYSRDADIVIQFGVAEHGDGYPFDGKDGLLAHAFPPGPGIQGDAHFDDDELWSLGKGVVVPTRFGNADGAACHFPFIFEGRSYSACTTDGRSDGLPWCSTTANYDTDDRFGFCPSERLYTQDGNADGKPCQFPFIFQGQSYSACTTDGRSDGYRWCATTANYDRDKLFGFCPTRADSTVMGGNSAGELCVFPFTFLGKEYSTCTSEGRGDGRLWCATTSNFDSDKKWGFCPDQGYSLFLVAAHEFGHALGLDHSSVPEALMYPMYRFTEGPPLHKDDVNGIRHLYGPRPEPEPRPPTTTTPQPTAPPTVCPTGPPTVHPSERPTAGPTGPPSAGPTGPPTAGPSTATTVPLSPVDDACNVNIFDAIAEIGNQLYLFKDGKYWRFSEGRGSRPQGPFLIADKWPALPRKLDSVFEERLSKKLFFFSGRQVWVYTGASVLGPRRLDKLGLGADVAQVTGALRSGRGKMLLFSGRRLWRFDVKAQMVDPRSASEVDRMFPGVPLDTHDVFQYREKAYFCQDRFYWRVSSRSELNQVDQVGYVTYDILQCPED
The gelatinase was incubated at 37° C. for 16 hours with radiomarked gelatin, and its activity was determined by the release of the soluble peptides produced by the enzymatic breakdown of the gelatin. The inhibiting concentration C150 for each compound was determined by measurement of the activity of the enzyme in the presence of the inhibitor at a concentration ranging between 10^−7 and 10^−12 M (the inhibitor is dissolved in the same manner as for collagenase).

Data set [3] deals with release of TNF from the peritoneal macrophages of mice stimulated by LPS. In words: Inhibition of the production of TNF in vitro. In kind it is cell-based. The conditions noted are these: mouse peritoneal macrophages, LPS 100 ng/ml, read-out: C150 (μM) TNF. The procedure: The capacity of the compounds according to this invention to inhibit the release of TNF was determined from the peritoneal macrophages of mice stimulated by LPS (Lang, F., Robert, […], Petit, J. Y., J. Pharmacol. Exp. Ther., 275, 171-176, 1995). After an adhesion phase of 2 hours, the cells were treated for 1 hour with the compound to be tested at concentrations ranging between 10^-6 to 10^-9 M (the inhibitor is dissolved in DMSO at 10^-2 M, then at 5.10^-3 M in RPMI 1640 with 5% SVF, then diluted successively by tenths in the same medium), then stimulated by the addition of LPS (100 ng/ml in final concentration). Three hours later, the biological activity of the TNF in the supernatants was determined by a cytotoxicity test using the murine stock L929 in accordance with the operating procedure described by Band, G., Lin, […]., Evans, C. H. (Bioch. Biophys. Acta, 1134, 309-318, 1982). The pg/ml concentration of the TNF of the samples was determined from a murine αTNF standard curve, thus making it possible to define the inhibiting concentration […] of the compounds studied.

Data set [4] concerns the target T2, 72 kDa gelatinase of human origin (Homo sapiens, UniProt P08253).
T2 sequence (P08253 110-660): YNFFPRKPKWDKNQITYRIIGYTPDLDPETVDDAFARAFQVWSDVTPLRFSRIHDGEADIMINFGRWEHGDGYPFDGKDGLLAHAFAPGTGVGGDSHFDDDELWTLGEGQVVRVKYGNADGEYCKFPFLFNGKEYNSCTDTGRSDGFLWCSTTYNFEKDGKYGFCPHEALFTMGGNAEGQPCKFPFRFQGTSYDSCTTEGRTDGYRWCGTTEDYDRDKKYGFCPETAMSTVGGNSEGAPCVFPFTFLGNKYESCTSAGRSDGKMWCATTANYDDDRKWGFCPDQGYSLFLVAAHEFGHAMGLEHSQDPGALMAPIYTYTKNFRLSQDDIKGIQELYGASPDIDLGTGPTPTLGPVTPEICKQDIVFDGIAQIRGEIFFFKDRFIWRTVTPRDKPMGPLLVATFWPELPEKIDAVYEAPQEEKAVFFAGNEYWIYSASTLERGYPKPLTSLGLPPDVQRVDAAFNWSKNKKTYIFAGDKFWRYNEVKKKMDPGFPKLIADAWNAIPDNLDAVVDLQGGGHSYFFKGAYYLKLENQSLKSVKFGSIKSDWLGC
In words: Activity on gelatinase, synthetic substrate. The class given is biochemical. The conditions noted are these: performed on synthetic substrate; read-out: C150 (nM) gelatinase 72 kDa**. Here is the method: The anti-gelatinase activity of the compounds according to the invention was determined on 72 kDa gelatinase of human origin, in accordance with the operating mode described by Knight, C. G., Willenbrock, F., Murphy, G. (FEBS Letters, 296 (3), 263-266, 1992).
The gelatinase was incubated at 37° C. for 10 minutes, and its activity was determined by the increase in fluorescence of the product of Mca-Pro-Leu breakdown of the Mca-Pro-Leu-Gly-Leu-Dpa-Ala-Arg-NH2 synthetic substrate.
The inhibiting concentration C150 for each compound was determined by measurement of the activity of the enzyme in the presence of the inhibitor at a concentration ranging between 10^−7 and 10^−12 M (the inhibitor is dissolved at a concentration of 10^−2 M in DMSO, then diluted successively by tenths in DMSO to 10^−4 M, then in the buffer: Tris, HCl 50 mM+0.05% Brij 35; CaCl2 10 mM; NaCl 0.15 M).

A short description of data set [5]: Determination of bioavailability (blood levels, ex-vivo bioassay). The class given is in vivo. Particulars: mouse, blood, 50 mg/kg, mice. Here is the method: The compounds of this invention were administered i.p. or p.o. between 1 and 50 mg/kg to mice: the blood levels then were determined by an ex-vivo bioassay according to Wang X. et al. (Cancer Res., 54, 4726-4728, 1994). The introduction of an OH group systematically increases the bioavailability of the products.

Turning to `CNC(=O)[C@H](Cc1ccc(OC)cc1)NC(=O)[C@](O)(CC(C)C)C(C)N(O)C=O` (mixture of isomers) [Example 38, N-2(S)-[1(N-hydroxy-N-formyl)ethyl]2(S)-hydroxy4-methylpentanoyl-o-methyl L-tyrosine methylamide], the IC50 was 130 nM in data set [1], 17 nM in data set [2] and 3.2 µM in data set [3] (Peritoneal macrophage).

Turning to `CC(C)C[C@@](O)(C(=O)NC(Cc1ccc(Cl)cc1)C(=O)NCCN1CCOCC1)C(C)C(=O)NO` (some centres unmarked) [Example 12b], in data set [3] (Peritoneal macrophage), the IC50 is 1.6 µM.

In the case of `CC(C)C[C@@](O)(C(=O)NC(Cc1ccc(Cl)cc1)C(=O)NCCN1CCOCC1)[C@H](C)C(=O)NO` (some centres unmarked) [Example 12b], the IC50 amounted to 22 nM in data set [1] and 8 nM in data set [2].

Regarding `CCC[C@H](C(=O)NO)[C@@](O)(CC(C)C)C(=O)N[C@@H](Cc1ccc(Cl)cc1)C(=O)NC` [Example 17, N-2(S) hydroxy 3(S) hydroxycarbamoyl 2(S) 1(2-methyl) propyl hexanoyl L-4-chlorophenylalanine N-methyl amide], the IC50 in data set [2] worked out at 1.6 nM; in data set [4] it was 1.6 nM; in data set [3] (Peritoneal macrophage) it was 0.27 µM.

For the molecule `CSCCNC(=O)[C@H](Cc1ccc(Cl)c(Cl)c1)NC(=O)[C@](O)(CC(C)C)[C@H](C)C(=O)NO` [Example 21, N-2(S)[1(S)hydroxycarbamoyl-1 ethyl]-2(S) hydroxy-4-methylpentanoyl L-3,4-dichlorophenylalanine N-(2-methylthio-1-ethyl) amide], the IC50 in data set [1] stood at 5 nM; in data set [3] (Peritoneal macrophage) it was 0.4 µM. The “gelatinase 92 kDa* (in %)” value in data set [2] (radiomarked gelatin, concentration not given) is listed as 83%.

On to `CNC(=O)[C@H](Cc1cccc(Cl)c1)NC(=O)[C@](O)(CC(C)C)[C@H](C)C(=O)NO` [Example 22, N-2(S)-[1(S) hydroxycarbamoyl-1 ethyl]-2(S) hydroxy-4-methylpentanoyl L-3-chlorophenylalanine N-methylamide], for which the IC50 in data set [1] is 2.4 nM; in data set [3] (Peritoneal macrophage), 0.13 µM.

With `CNC(=O)[C@H](Cc1c[nH]c2ccccc12)NC(=O)[C@](O)(CC(C)C)[C@H](C)C(=O)NO` [Example 26, N-2-(S)[1(S) hydroxycarbamoyl-1 ethyl]-2(S)hydroxy-4-methylpentanoyl L-tryptophan N-methylamide], the IC50 in data set [2] turned out to be 0.6 nM; in data set [3] (Peritoneal macrophage), 4.4 µM.

As to `CC(C)C[C@@](O)(C(=O)N[C@@H](Cc1ccc(Cl)cc1)C(=O)NCCC#N)[C@H](C)C(=O)NO` [Example 27, N-2(S)[1(S) hydroxycarbamoyl-1 ethyl]-2(S)hydroxy-4-methylpentanoyl L-4-chlorophenylalanine N-(2-cyano-1-ethyl) amide], in data set [2], the IC50 is 1.7 nM.

In the case of `CC(C)C[C@@](O)(C(=O)N[C@@H](Cc1ccc(Cl)cc1)C(=O)NCC/C(N)=N/O)[C@H](C)C(=O)NO` [Example 28, N-2(S)[1(S) hydroxycarbamoyl-1 ethyl]-2(S)hydroxy-4-methylpentanoyl L-4-chlorophenylalanine N-oximino-2-amino-2-ethylamide], the IC50 in data set [1] is 26 nM; in data set [2] it was 1.6 nM.

For the molecule `CC(C)C[C@@](O)(C(=O)N[C@@H](Cc1ccc(Cl)c(Cl)c1)C(=O)NCCN1CCOCC1)[C@H](C)C(=O)NO` [Example 35b], the IC50 in data set [1] was 4 nM; in data set [2] it was 1.1 nM; in data set [3] (Peritoneal macrophage), 0.3 µM.

For `CNC(=O)[C@H](Cc1ccc(OC)cc1)NC(=O)[C@](O)(CC(C)C)[C@H](C)S` [Example 36, N-2(R)-[(1-thioethyl)] 2(R) hydroxy 4-methyl pentanoyl-o-methyl-L-tyrosine methylamide], the results for the IC50 in data set [1], in data set [2] and in data set [3] (Peritoneal macrophage) were 500 nM, 23 nM and 3 µM, respectively.

For the molecule `CNC(=O)[C@H](Cc1ccc(Cl)c(Cl)c1)NC(=O)[C@@](O)(CS)CC(C)C` [Example 37], the IC50 in data set [1] is above 1000 nM; in data set [2], 70 nM; in data set [3] (Peritoneal macrophage), 2 µM.

In the case of `CC(C)C[C@@](O)(C(=O)N[C@@H](Cc1ccc(Cl)c(Cl)c1)C(=O)NCCOCCO)[C@H](C)C(=O)NO` [drawing 120], the concentration at 10 min in data set [5] (ip, 50 mg/kg i.p., read-out: blood level, I.p. method, 10′) was 4500 ng/mL; in data set [5] (po, 50 mg/kg p.o., read-out: blood level, P.o. method, 10′), 100 ng/mL. The concentration at 20 min in data set [5] (ip, 50 mg/kg i.p., read-out: blood level, I.p. method, 20′) was 7800 ng/mL; in data set [5] (po, 50 mg/kg p.o., read-out: blood level, P.o. method, 20′), 100 ng/mL. In data set [5] (ip, 50 mg/kg i.p., 40′, read-out: blood level, I.p. method, 40′), the concentration at 40 min came out at 4400 ng/mL.

Consider `CNC(=O)[C@@H](NC(=O)[C@H](CC(C)C)[C@H](O)C(=O)NO)C(C)(C)C` [reference compound], for which, in data set [3] (Peritoneal macrophage), the IC50 was 0.14 µM.

On to “N-2(S)[1(S)-hydroxycarbamoyl-1 (S) ethyl]-2 (S)-hydroxy-4-methyl pentanoyl L-(3,4)-dichlorophenylalanine N-(2-(4-morpholino)1-ethyl) amide [Example 35a]”, for which the IC50 in data set [1] came out at 6 nM; in data set [2] it was 0.38 nM; in data set [3], 0.86 µM.

In the case of “N-2-(S)[(S)-hydroxy-(S)hydroxycarbamoylmethyl)-2(S)-hydroxy-4-methyl]pentanoyl-o-methyl-3-methyl-(S) valine N-methylamide [Example 34]”, the IC50 in data set [2] amounted to 34 nM.
